In patent publication US12668600B2 (Kumquat Biosciences Inc., priority 2023, dated 2026):

Columns and labels:
Format in all cases: biochemical
KRAS G12V = target: T1, KRAS G12V (Homo sapiens, UniProt P01116, G12V); experiment: HTRF KRAS-SOS1 interaction assay, KRAS G12V; details: binned ≤2 μM / >2 μM, read-out: Inhibition of KRAS G12V (IC50)
T1 construct: made in house; host or cells: E. coli, e.g. BL21 (DE3)
Method in brief: (§1)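 GST-tagged KRAS (WT or mutant) with anti-GST-Eu donor and His-hSOS1 with anti-6His-XL665 acceptor were combined in 5 mM HEPES pH 7.4, 150 mM NaCl, 1 mM DTT, 0.05% BSA, 0.0025% Igepal. After ~10 min, HTRF was read (ex 337, em 620/665 nm); IC50 from 665/620 ratio.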

KRAS G12D = target: T2, KRAS G12D (Homo sapiens, UniProt P01116, G12D); experiment: HTRF KRAS-SOS1 interaction assay, KRAS G12D; details: binned ≤2 μM / >2 μM, read-out: Inhibition of KRAS G12D (IC50)
T2 construct: made in house; host or cells: E. coli, e.g. BL21 (DE3)
Method in brief: as §1

KRAS WT = target: T3, KRAS WT (Homo sapiens, UniProt P01116); experiment: HTRF KRAS-SOS1 interaction assay, wildtype KRAS; details: binned ≤2 μM / >2 μM, read-out: Inhibition of KRAS WT (IC50)
T3 construct: made in house; host or cells: E. coli, e.g. BL21 (DE3)
Method in brief: as §1

KRAS G12S = target: T4, KRAS G12S (Homo sapiens, UniProt P01116, G12S); experiment: HTRF KRAS-SOS1 interaction assay, KRAS G12S; details: binned ≤2 μM / >2 μM, read-out: Inhibition of KRAS G12S (IC50)
T4 construct: made in house; host or cells: E. coli, e.g. BL21 (DE3)
Method in brief: as §1

T2 sequence (P01116 1-188 isoform P01116-2 G12D): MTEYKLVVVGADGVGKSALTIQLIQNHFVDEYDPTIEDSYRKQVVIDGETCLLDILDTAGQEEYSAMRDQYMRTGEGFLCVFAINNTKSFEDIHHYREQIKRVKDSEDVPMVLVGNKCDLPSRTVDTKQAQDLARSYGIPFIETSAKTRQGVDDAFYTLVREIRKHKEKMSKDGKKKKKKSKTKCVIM
T3 sequence (P01116 1-188 isoform P01116-2): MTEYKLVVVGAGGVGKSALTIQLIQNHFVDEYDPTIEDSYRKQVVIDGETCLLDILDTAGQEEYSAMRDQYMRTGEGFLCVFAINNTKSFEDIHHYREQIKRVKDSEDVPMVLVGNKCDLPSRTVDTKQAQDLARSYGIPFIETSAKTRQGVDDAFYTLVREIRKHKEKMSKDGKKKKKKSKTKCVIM
T4 sequence (P01116 1-188 isoform P01116-2 G12S): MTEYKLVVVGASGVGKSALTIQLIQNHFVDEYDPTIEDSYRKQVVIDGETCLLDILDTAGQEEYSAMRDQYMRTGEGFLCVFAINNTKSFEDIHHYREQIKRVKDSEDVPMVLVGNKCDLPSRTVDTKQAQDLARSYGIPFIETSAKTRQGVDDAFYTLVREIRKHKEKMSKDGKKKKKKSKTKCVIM
T1 sequence (P01116 1-188 isoform P01116-2 G12V): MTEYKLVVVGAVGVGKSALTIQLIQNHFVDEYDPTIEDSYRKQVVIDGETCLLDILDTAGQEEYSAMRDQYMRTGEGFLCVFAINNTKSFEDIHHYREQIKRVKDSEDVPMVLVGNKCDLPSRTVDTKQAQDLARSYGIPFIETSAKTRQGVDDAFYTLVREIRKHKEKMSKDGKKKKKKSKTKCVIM

| Compound | IC50 (KRAS G12V) [nM] | IC50 (KRAS G12D) [nM] | IC50 (KRAS WT) [nM] | IC50 (KRAS G12S) [nM] |
| --- | --- | --- | --- | --- |
| C[C@H](c1cccnc1N)N1CCOc2c(Cl)c(-c3ccc(F)c4sc(N)c(C#N)c34)c(F)c3nc(OC[C@@H]4CCCN4C)nc1c23 (single isomer, unassigned) [Compound 641] | ≤ 2000 | ≤ 2000 | ≤ 2000 | ≤ 2000 |
| C[C@@H]1CN(CC2(COc3nc4c5c(c(C(F)(F)F)c(-c6ccc(F)c7sc(N)c(C#N)c67)c(F)c5n3)OCCN4[C@H](C)c3cccnc3N)CC2)C[C@H](C)O1 [Compound 710, 2-amino-4-(4-((R)-1-(2-aminopyridin-3-yl)ethyl)-2-((1-(((2S,6R)-2,6-dimethylmorpholino)methyl)cyclopropyl)methoxy)-10-fluoro-8-(trifluoromethyl)-5,6-dihydro-4H-[1,4]oxazepino[5,6,7-de]quinazolin-9-yl)-7-fluorobenzo[b]thiophene-3-carbonitrile] | ≤ 2000 | > 2000 | ≤ 2000 | ≤ 2000 |
| N#Cc1c(N)sc2c(F)ccc(-c3c(C(F)(F)F)c4c5c(nc(OC[C@@]67CCCN6[C@H](COc6nccnc6C(F)F)CC7)nc5c3F)N([C@@H](c3cccnc3N)C(F)F)CCO4)c12 (single isomer, unassigned) [Compound 605] | ≤ 2000 | ≤ 2000 | ≤ 2000 | ≤ 2000 |
| N#Cc1c(N)sc2c(F)ccc(-c3c(C(F)(F)F)c4c5c(nc(OC[C@@]67CCCN6C[C@H](F)C7)nc5c3F)N([C@H](CC3CC3)c3cccnc3N)CCO4)c12 (single isomer, unassigned) [Compound 753] | ≤ 2000 | ≤ 2000 | ≤ 2000 | ≤ 2000 |
| C[C@H](c1cc(Cl)cnc1N)N1CCOc2c(C(F)(F)F)c(-c3ccc(F)c4sc(N)c(C#N)c34)c(F)c3nc(OC[C@@]45CCCN4C[C@H](F)C5)nc1c23 (single isomer, unassigned) [Compound 766] | ≤ 2000 | ≤ 2000 | ≤ 2000 | ≤ 2000 |
| C=C1CN2CCC[C@@]2(COc2nc3c4c(c(C(F)(F)F)c(-c5ccc(F)c6sc(N)c(C#N)c56)c(F)c4n2)OCCN3[C@H](C)c2cncnc2N)C1 [Compound 680, 2-amino-4-(4-((R)-1-(4-aminopyrimidin-5-yl)ethyl)-10-fluoro-2-(((S)-2-methylenetetrahydro-1H-pyrrolizin-7a(5H)-yl)methoxy)-8-(trifluoromethyl)-5,6-dihydro-4H-[1,4]oxazepino[5,6,7-de]quinazolin-9-yl)-7-fluorobenzo[b]thiophene-3-carbonitrile] | ≤ 2000 | ≤ 2000 | ≤ 2000 | ≤ 2000 |
| N#Cc1c(N)sc2c(F)ccc(-c3c(C(F)(F)F)c4c5c(nc(OC[C@@]67CCCN6C[C@H](F)C7)nc5c3F)N([C@H](CC3CCOC3)c3cccnc3N)CCO4)c12 (single isomer, unassigned) [Compound 692] | ≤ 2000 | ≤ 2000 | ≤ 2000 | ≤ 2000 |
| CC(=O)N1CCC(C[C@H](c2cccnc2N)N2CCOc3c(C(F)(F)F)c(-c4ccc(F)c5sc(N)c(C#N)c45)c(F)c4nc(OC[C@@]56CCCN5C[C@H](F)C6)nc2c34)CC1 [Compound 658, 4-(4-((R)-2-(1-acetylpiperidin-4-yl)-1-(2-aminopyridin-3-yl)ethyl)-10-fluoro-2-(((2R,7aS)-2-fluorotetrahydro-1H-pyrrolizin-7a(5H)-yl)methoxy)-8-(trifluoromethyl)-5,6-dihydro-4H-[1,4]oxazepino[5,6,7-de]quinazolin-9-yl)-2-amino-7-fluorobenzo[b]thiophene-3-carbonitrile] | ≤ 2000 | ≤ 2000 | ≤ 2000 | ≤ 2000 |
| N#Cc1c(N)sc2c(F)ccc(-c3c(Cl)c4c5c(nc(OC[C@@]67CCCN6C[C@H](F)C7)nc5c3F)N([C@H](C/C=C/C(F)(F)F)c3cccnc3N)CCO4)c12 [Compound 733, 2-amino-4-(4-((R,E)-1-(2-aminopyridin-3-yl)-5,5,5-trifluoropent-3-en-1-yl)-8-chloro-10-fluoro-2-(((2R,7aS)-2-fluorotetrahydro-1H-pyrrolizin-7a(5H)-yl)methoxy)-5,6-dihydro-4H-[1,4]oxazepino[5,6,7-de]quinazolin-9-yl)-7-fluorobenzo[b]thiophene-3-carbonitrile] | ≤ 2000 | ≤ 2000 | ≤ 2000 | ≤ 2000 |
| CN(C)CCC[C@H](c1cccnc1N)N1CCOc2c(C(F)(F)F)c(-c3ccc(F)c4sc(N)c(C#N)c34)c(F)c3nc(OC[C@@]45CCCN4C[C@H](F)C5)nc1c23 (single isomer, unassigned) [Compound 705] | ≤ 2000 | ≤ 2000 | ≤ 2000 | ≤ 2000 |

The remaining lines, values ahead:

| IC50 (KRAS G12V) [nM] | IC50 (KRAS G12D) [nM] | IC50 (KRAS WT) [nM] | IC50 (KRAS G12S) [nM] | Compound |
| --- | --- | --- | --- | --- |
| ≤ 2000 | ≤ 2000 | ≤ 2000 | ≤ 2000 | CCN1CC[C@H](OC)[C@H]1[C@H](C)Oc1nc2c3c(c(C(F)(F)F)c(-c4ccc(F)c5sc(N)c(C#N)c45)c(F)c3n1)OCCN2[C@H](C)c1cccnc1N [Compound 896, 2-amino-4-(4-((R)-1-(2-aminopyridin-3-yl)ethyl)-2-((S)-1-((2R,3S)-1-ethyl-3-methoxypyrrolidin-2-yl)ethoxy)-10-fluoro-8-(trifluoromethyl)-5,6-dihydro-4H-[1,4]oxazepino[5,6,7-de]quinazolin-9-yl)-7-fluorobenzo[b]thiophene-3-carbonitrile] |
| ≤ 2000 | ≤ 2000 | ≤ 2000 | ≤ 2000 | C[C@H](c1cccnc1N)N1CCOc2c(Cl)c(-c3ccc(F)c4sc(N)c(C#N)c34)c(F)c3nc(OCC45CCCC4CCC5)nc1c23 (single isomer, unassigned) [Compound 914] |
| ≤ 2000 | ≤ 2000 | ≤ 2000 | ≤ 2000 | C[C@H](c1nccnc1N)N1CCOc2c(C(F)(F)F)c(-c3ccc(F)c4sc(N)c(C#N)c34)c(F)c3nc(OC[C@@]45CCCN4C[C@@]4(CC4(F)F)C5)nc1c23 [Compound 773, 2-amino-4-(4-((R)-1-(3-aminopyrazin-2-yl)ethyl)-2-(((1S,7a′S)-2,2-difluorodihydro-1′H,3′H-spiro[cyclopropane-1,2′-pyrrolizin]-7a′(5′H)-yl)methoxy)-10-fluoro-8-(trifluoromethyl)-5,6-dihydro-4H-[1,4]oxazepino[5,6,7-de]quinazolin-9-yl)-7-fluorobenzo[b]thiophene-3-carbonitrile] |
| ≤ 2000 | ≤ 2000 | ≤ 2000 | ≤ 2000 | C[C@H](c1cc(Cl)cnc1N)N1CCOc2c(C(F)(F)F)c(-c3ccc(F)c4sc(N)c(C#N)c34)c(F)c3nc(OCC4(CN5CCC(=CF)CC5)CC4)nc1c23 [Compound 819, 2-amino-4-(4-((R)-1-(2-amino-5-chloropyridin-3-yl)ethyl)-10-fluoro-2-((1-((4-(fluoromethylene)piperidin-1-yl)methyl)cyclopropyl)methoxy)-8-(trifluoromethyl)-5,6-dihydro-4H-[1,4]oxazepino[5,6,7-de]quinazolin-9-yl)-7-fluorobenzo[b]thiophene-3-carbonitrile] |
| ≤ 2000 | ≤ 2000 | ≤ 2000 | ≤ 2000 | N#Cc1c(N)sc2c(F)ccc(-c3c(C(F)(F)F)c4c5c(nc(OC[C@@]67CCCN6C[C@@]6(CC6(F)F)C7)nc5c3F)N([C@@H](c3cccnc3N)C(F)F)CCO4)c12 (single isomer, unassigned) [Compound 843] |
| ≤ 2000 | ≤ 2000 | ≤ 2000 | ≤ 2000 | C[C@H](Oc1nc2c3c(c(C(F)(F)F)c(-c4ccc(F)c5sc(N)c(C#N)c45)c(F)c3n1)OCCN2[C@H](C)c1cccnc1N)[C@@H]1C[C@@H](F)CN1C [Compound 890, 2-amino-4-(4-((R)-1-(2-aminopyridin-3-yl)ethyl)-10-fluoro-2-((S)-1-((2S,4R)-4-fluoro-1-methylpyrrolidin-2-yl)ethoxy)-8-(trifluoromethyl)-5,6-dihydro-4H-[1,4]oxazepino[5,6,7-de]quinazolin-9-yl)-7-fluorobenzo[b]thiophene-3-carbonitrile] |
| ≤ 2000 | ≤ 2000 | ≤ 2000 | ≤ 2000 | N#Cc1c(N)sc2c(F)ccc(-c3c(Cl)c4c5c(nc(OC[C@@]67CCCN6C[C@H](F)C7)nc5c3F)N(C(/C=C/C(F)(F)F)c3cccnc3N)CCO4)c12 (mixture of isomers) [Compound 828, 2-amino-4-(4-((E)-1-(2-aminopyridin-3-yl)-4,4,4-trifluorobut-2-en-1-yl)-8-chloro-10-fluoro-2-(((2R,7aS)-2-fluorotetrahydro-1H-pyrrolizin-7a(5H)-yl)methoxy)-5,6-dihydro-4H-[1,4]oxazepino[5,6,7-de]quinazolin-9-yl)-7-fluorobenzo[b]thiophene-3-carbonitrile] |
| > 2000 | > 2000 | > 2000 | > 2000 | N#Cc1c(N)sc2c(F)ccc(-c3c(C(F)(F)F)c4c5c(nc(OC[C@@]67CCCN6C[C@@]6(CC6(F)F)C7)nc5c3F)N([C@@H](c3cccnc3N)C(F)F)CCO4)c12 (single isomer, unassigned) [Compound 897] |
